Source: PubChem BioAssay AID1918991 (Molecular Pharmacology Branch, DTP, NCI, 2023)

Test system: 186277-243-T-J2-PDC complex spheroid growth
Test: Anticancer human tumor 186277-243-T-J2-PDC patient-derived colon adenocarcinoma cell line growth inhibition [AhR]
Details: for IC50: curve of first compound; for viability, T/C: stronger effect = lower value
Procedure, shortened: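 Agents were dosed in half-log steps down from roughly clinical Cmax, or from 10 microM where Cmax was unknown, alone and with AhR antagonists. Read-out: percent test/control growth of tumor spheroids containing HUVEC and MSC stromal cells.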

[1] = second compound 0.1 µM, first compound 0.0316 µM
[2] = second compound 0.1 µM, first compound 0.1 µM
[3] = second compound 0.1 µM, first compound 0.316 µM
[4] = second compound 0.1 µM, first compound 1 µM
[5] = second compound 0.316 µM, first compound 0.0316 µM
[6] = second compound 0.316 µM, first compound 0.1 µM
[7] = second compound 0.316 µM, first compound 0.316 µM
[8] = second compound 0.316 µM, first compound 1 µM
[9] = second compound 1 µM, first compound 0.0316 µM
[10] = second compound 1 µM, first compound 0.1 µM
[11] = second compound 1 µM, first compound 0.316 µM
[12] = second compound 1 µM, first compound 1 µM
[13] = second compound 3.16 µM, first compound 0.0316 µM
[14] = second compound 3.16 µM, first compound 0.1 µM
[15] = second compound 3.16 µM, first compound 0.316 µM
[16] = second compound 3.16 µM, first compound 1 µM
[17] = second compound 10 µM, first compound 0.0316 µM
[18] = second compound 10 µM, first compound 0.1 µM
[19] = second compound 10 µM, first compound 0.316 µM
[20] = second compound 10 µM, first compound 1 µM
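Note: spheroids exposed to compounds for seven days before the viability read.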
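Throughout, for viability, T/C: luminescent signal used as a stand-in for viable cell amount; 100% = DMSO vehicle control wells.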

Structure (SMILES) | IC50 (second compound 0.1 µM) | IC50 (second compound 0.316 µM) | IC50 (second compound 1 µM) | IC50 (second compound 3.16 µM) | IC50 (second compound 10 µM) | viability, T/C [1] | viability, T/C [2] | viability, T/C [3] | viability, T/C [4] | viability, T/C [5] | viability, T/C [6] | viability, T/C [7] | viability, T/C [8] | viability, T/C [9] | viability, T/C [10] | viability, T/C [11] | viability, T/C [12] | viability, T/C [13] | viability, T/C [14] | viability, T/C [15] | further results
CC1COCCN1c1cc(-c2ccnn2C)c2ccnc(-c3ccn[nH]3)c2n1 (stereo not given) + Cc1cncc(-c2nc(NCCc3c[nH]c4ccccc34)c3ncn(C(C)C)c3n2)c1 | 79.8 nM | 79.3 nM | 80.9 nM | 72.9 nM | < 3.16 nM | 112% | 36.4% | 7.55% | 3.82% | 122% | 35.2% | 8.4% | 4.07% | 119% | 37.4% | 7.76% | 5.82% | 116% | 29% | 9.02% | viability, T/C (second compound 0.1 µM, first compound 0.00316 µM): 99%; viability, T/C (second compound 0.1 µM, first compound 0.01 µM): 106%; viability, T/C (second compound 0.316 µM, first compound 0.00316 µM): 97.4%; viability, T/C (second compound 0.316 µM, first compound 0.01 µM): 106%; viability, T/C (second compound 1 µM, first compound 0.00316 µM): 107%; viability, T/C (second compound 1 µM, first compound 0.01 µM): 90%; viability, T/C (second compound 3.16 µM, first compound 0.00316 µM): 95.3%; viability, T/C (second compound 3.16 µM, first compound 0.01 µM): 105%; viability, T/C [16]: 5.27%; viability, T/C (second compound 10 µM, first compound 0.00316 µM): 25.3%; viability, T/C (second compound 10 µM, first compound 0.01 µM): 26.8%; viability, T/C [17]: 13.8%; viability, T/C [18]: 6.13%; viability, T/C [19]: 3.4%; viability, T/C [20]: 2.65%
CC1COCCN1c1cc(C2(S(C)(=N)=O)CC2)nc(-c2ccnc3[nH]ccc23)n1 (stereo not given) + Cc1cncc(-c2nc(NCCc3c[nH]c4ccccc34)c3ncn(C(C)C)c3n2)c1 | 4070 nM | 3990 nM | 3720 nM | 2900 nM | 1300 nM | 85.5% | 119% | 91.6% | 99.5% | 96.8% | 97.2% | 87.3% | 106% | 95.4% | 106% | 97.3% | 106% | 105% | 105% | 102% | viability, T/C (second compound 0.1 µM, first compound 3.16 µM): 62%; viability, T/C (second compound 0.1 µM, first compound 10 µM): 6.76%; viability, T/C (second compound 0.316 µM, first compound 3.16 µM): 60.9%; viability, T/C (second compound 0.316 µM, first compound 10 µM): 7.2%; viability, T/C (second compound 1 µM, first compound 3.16 µM): 57.1%; viability, T/C (second compound 1 µM, first compound 10 µM): 7.29%; viability, T/C [16]: 105%; viability, T/C (second compound 3.16 µM, first compound 3.16 µM): 45.5%; viability, T/C (second compound 3.16 µM, first compound 10 µM): 8.1%; viability, T/C [17]: 79.2%; viability, T/C [18]: 79%; viability, T/C [19]: 70.1%; viability, T/C [20]: 60.6%; viability, T/C (second compound 10 µM, first compound 3.16 µM): 18.6%; viability, T/C (second compound 10 µM, first compound 10 µM): 5.52%
